Measurements from US20050032738A1, “Method of treating cancer by conjunctive therapy with 2'-haloemethylidene derivatives and a S-phase or M-phase specific antineoplastic agent” (Merrell Pharmaceuticals Inc., priority 1992, published 2005).
Converted amounts (≈) assume the structure as drawn.

Assays:
HeLa cells = assay: Antiproliferative activity against HeLa cells (MTT cell viability); details: for IC50: Homo sapiens, HeLa, 72 h, read-out: Drug Alone IC50
B16 melanoma = assay: Antitumor activity against B16 melanoma in mice; assay type: in vivo; details: B16 melanoma s.c. day 0, i.p. once daily, 101,731 5 mg/kg day 1-7, Ara-C 10 mg/kg day 7-14; for % Inhibition (tumor weight): day 15; for Tumor Weight (g) (Mean ± S.D.): tumors weighed day 15
Description: Inject B16 melanoma cells (1×10^5 cells/mouse) subcutaneously on day 0. Administer compounds i.p. once daily as indicated. Sacrifice the animals on day 15, dissect the tumors and weigh.

Lewis lung carcinoma = assay: Antitumor activity against Lewis lung carcinoma in mice (tumor weight, pulmonary metastatic foci); assay type: in vivo; details: i.p. once daily, 101,731 5 mg/kg day 1-7, Ara-C 10 mg/kg day 7-14; for % Inhibition (tumor weight) / Tumor Weight (g) (Mean ± S.D.): 3LL cells s.c. day 0; for % Inhibition (tumor weight) / % Inhibition (No. of foci) / No. of Foci (Mean ± S.D.): day 15; for Tumor Weight (g) (Mean ± S.D.): tumors weighed day 15; for % Inhibition (No. of foci) / No. of Foci (Mean ± S.D.): pulmonary metastatic foci
Description: Inject 3 LL cells (1×10^5/mouse) s.c. on day 0. Administer compounds i.p., once daily as indicated. Sacrifice animals on day 15, dissect the tumors and weigh. Also count pulmonary metastatic foci.

SMILES | IC50 (HeLa cells) | Effect on the growth of the tumor cells (HeLa cells; MDL 101,731 alone, 15 ng/mL for 24 hours, HeLa cells) | % Inhibition (tumor weight) (B16 melanoma) | Tumor Weight (g) (Mean ± S.D.) (B16 melanoma) | % Inhibition (tumor weight) (Lewis lung carcinoma) | Tumor Weight (g) (Mean ± S.D.) (Lewis lung carcinoma) | % Inhibition (No. of foci) (Lewis lung carcinoma) | No. of Foci (Mean ± S.D.) (Lewis lung carcinoma) | Drug + 101,731 IC50 (HeLa cells; HeLa cells pretreated with MDL 101,731 15 ng/mL for 24 hours, washed, then drug for 72 hours, MTT) | Drug Alone IC50 (HeLa cells; HeLa cells, 72 hours exposure to drug, MTT)
O=c1[nH]cc(F)c(=O)[nH]1 [5-Fluorouracil (5Fu), 5-Fluorouracil] | 41.1 µg/mL (≈ 316 µM) | – | – | – | – | – | – | – | – | –
Nc1ccn([C@@H]2O[C@H](CO)[C@@H](O)/C2=C\F)c(=O)n1 [101,731, (E)-2′-deoxy-2′-fluoromethylidenecytidine] | – | did not show any effect | 10% | 2.4 ± 0.9 g | 20% | 2.8 ± 0.6 g | 0% | 15.5 ± 6 | – | –
Nc1ccn([C@@H]2O[C@H](CO)[C@@H](O)[C@@H]2O)c(=O)n1 [Ara-C, Cytosine Arabinoside] | – | – | 0% | 3.6 ± 0.8 g | 0% | 3.83 ± 0.8 g | 0% | 14.6 ± 5 | 3.2 µg/mL | 13.7 µg/mL
CC[C@]1(O)C[C@@H]2CN(CCc3c([nH]c4ccccc34)[C@@](C(=O)OC)(c3cc4c(cc3OC)N(C)[C@H]3[C@@](O)(C(=O)OC)[C@H](OC(C)=O)[C@]5(CC)C=CCN6CC[C@]43[C@@H]65)C2)C1 [Vinblastine (VLB), Vinblastine] | 86.7 µg/mL (≈ 107 µM) | – | – | – | – | – | – | – | – | –
